Experimental findings from paper PMC7558282, “The Anticancer Activity for the Bumetanide-Based Analogs via Targeting the Tumor-Associated Membrane-Bound Human Carbonic Anhydrase-IX Enzyme” (Pharmaceuticals, 2020) are described below.

For assay [1], the system named is HEK-293 cells. As to the kind of experiment: MTT assay, non-tumorigenic HEK-293. In kind it is cell-based. As to conditions: HEK293, normal human embryonic kidney cells. The protocol: Such differential activity patterns could be explained as off-target activity mediated by the latter compounds being related to a specific cancer cell line.
Figure 3 Antiproliferative activity of compound 9c in tumorigenic A-498 cells and non-tumorigenic HEK-293 cells. The experiment was performed in triplicate and significance was represented as mean ± S.D. ** = p < 0.01; *** = p < 0.001 between indicated groups.
The colorimetric MTT Cell Proliferation® Assay Kit (Cat. №. 10009365; Cayman Chemical^TM, Ann Arbor, MI, USA) has been utilized to assess the cytotoxic impact of the investigated compounds on solid cancer cell lines. […] Color intensity within each well was measured spectrophotometrically using the ROBONIK-P2000® ELISA microplate reader (Bio-Tek^TM, Winooski, VT, USA) at 450 nm while subtracting the background absorbance of multi well plates at 690 nm. The experiment was conducted in triplicates and IC50 values were estimated through linear regression between the logarithm-transformed compound concentrations and corresponding % cell viability = (mean absorbance in test wells/mean absorbance in control wells) ∗ 100, having the response variable slope (four parameters) for all samples.

Assay [2] deals with hCA-II (Homo sapiens, UniProt P00918). As to the kind of experiment: colorimetric CA-inhibition assay based on CA-esterase activity, hCA-II. The conditions noted are these: hCA-II IC50, three replicate experiments; N/D = non-detected IC50 within the range of the tested concentrations.
Protocol: Based on the kit manufacturer’s protocol, the candidate inhibitors were dissolved in DMSO at 10 × highest final test concentration and specific aliquots of such working dilutions were incubated with the target hCA isozyme for 10 min at room temperature prior to permit the formation of the enzyme-inhibitor complex. Triplicate experiments were performed for each candidate inhibitor concentration. Parallel wells of solvent and enzyme controls were prepared to test the solvent impact upon the activity of the target enzyme. […] Following incubation, the CA-substrate was added and changes in absorbance (at 405 nm) were monitored for 60 min at room temperature within the kinetic mode. The negative enzyme control wells (without added compounds) were arbitrarily set as 100% enzyme activity. […] Absorbance readings from background wells were subtracted from the compound assay wells in order to account for background hydrolysis activity caused by the buffer solution [44, 45].
Assay [3] concerns A-498 kidney carcinoma cells. As to the kind of experiment: MTT cell proliferation assay, A-498. The conditions noted are these: Homo sapiens, A498, 48 h, ±SEM. In kind it is cell-based, human. As to the method:
Cells were cultured in 96-well plate, at cell density of 1.2–1.8 × 10^4 cells/well, using Dulbecco’s Modified Eagle Medium (Invitrogen^TM, Carlsbad, CA, USA) supplemented with 10% (w/v) fetal bovine serum (Hyclone^TM, Marlborough, MA, USA), 10 ug/mL of insulin (Sigma-Aldrich^TM, St. Louis, MO, USA), and 1% (w/v) penicillin-streptomycin (Sigma-Aldrich^TM, St. Louis, MO, USA). Following 24h-incubation period under 5% CO2 at 37 °C, cells were treated with compounds’ serial concentrations (0.1 µM–100 µM) in DMSO, where the DMSO final concentration in the culture medium never exceeded 0.2% (v/v). Subsequently, the treated microplates were incubated for 48 h at 5% CO2/37 °C prior to examination under the inverted microscope and proceeding for the MTT assay. The culture medium was discarded and 100 µL of complete medium comprising 5 mg/mL MTT dye were dispensed within every well, then plates were reincubated for 2 h at 5% CO2/37 °C. […] Color intensity within each well was measured spectrophotometrically using the ROBONIK-P2000® ELISA microplate reader (Bio-Tek^TM, Winooski, VT, USA) at 450 nm while subtracting the background absorbance of multi well plates at 690 nm. The experiment was conducted in triplicates and IC50 values were estimated through linear regression between the logarithm-transformed compound concentrations and corresponding % cell viability = (mean absorbance in test wells/mean absorbance in control wells) ∗ 100, having the response variable slope (four parameters) for all samples.
(In general: Formazan colour is commonly taken as a measure of viable cells.)

In the case of `CCCCNc1cc(-c2n[nH]c(=S)n2-c2ccc(Br)cc2)cc(S(N)(=O)=O)c1Oc1ccccc1` [Compound 9c], the IC50 (in general, the concentration needed to halve the response being measured) in assay [1] is greater than 50 µM; in assay [2], 320 nM; in assay [3], 5.07 ± 0.11 µM.
